Laboratory results as given in publication doi:10.1101/2024.05.17.594634, “Protein Structure Inspired Drug Discovery” (bioRxiv, 2024).

What was measured:
human CD34+ stem cells = assay: Bone marrow stem cell (hematopoietic) colony formation assay; type: cell-based; settings: for mean number of colonies, % of control, 14 day / mean number of colonies, % of control, 8 day: 40 μM compound, mean N=2; for mean number of colonies, % of control, 14 day: 14 days; for mean number of colonies, % of control, 8 day: total colonies at 8 days
Protocol: In parallel with measuring growth inhibition of cancer cell growth, we measured effect on human hematopoietic stem cells. Hematopoietic stem cells reside in the bone marrow and are the source of mature cells present in blood.[66] Bone marrow is one of the most sensitive organs in the body to drug toxicity, especially so for anticancer drugs where it can approach 100%.[67–69] Bone marrow toxicity was measured by performing hematopoietic colony formation assays on human CD34+ stem cells. The stem cell nature of this assay permitted assessment of trilineage colony formation: granulocytic (white blood cells), erythrocytic (red blood cells) and megakaryocytic (platelets), measured by the formation of CFU-GM (colony-forming-granulocyte-macrophage), BFU-E (erythroid burst-forming unites) and CFU-GEMM (colony-forming unit-granulocyte, erythrocyte, monocyte, megakaryocyte) colonies, respectively. Two measurements were taken. Total colonies at eight days were measured, thereby matching the eight-day time frame of cancer cell colony formation assays. At fourteen days, individual colonies have differentiated, permitting quantification of each lineage. Human hematopoietic stem cell trilineage colony formation assays were performed as previously described by us.[65] Briefly, human cord blood CD34+ cells (catalog #: 70008.5) were purchased from StemCell Technology Inc., and seeded at 1 × 10^4 cells per 35 mm dish. Cells were cultured in MethoCult™ Express (StemCell Technologies, Inc.) semisolid media, per manufacturer’s instructions, in the presence of compound or vehicle control. At eight days colonies, i.e., groups of ≥ 10 cells, were counted. At fourteen days, individual colonies of BFU-E, CFU-GM and CFU-GEMM were identified based on manufacturers’ morphologic characterization criteria. Assays were run in replicates of N = 2; some were run in replicates of N = 3, as denoted.

HT29 colon cancer cells = assay: Eight-day colony formation assay, HT29; type: cell-based, human
Protocol: (§1) We sought to identify compounds that would inhibit the growth of cancer cells, but that also did so selectively. Inhibition of cancer cell growth is a highly sought after attribute of anticancer agents. This was assessed by measuring the ability of a compound to inhibit cell growth in eight-day colony formation assays, examining concentrations ranging from 0.017 to 40 μM. Breast, colon, lung and prostate cancer are four of the most common causes of cancer in the United States, are major causes of cancer cell death, and were examined.[64] Two cell lines for each cancer type were assessed: A549 (adenocarcinoma) and H226 (squamous carcinoma) for lung, MCF-7 (estrogen receptor [ER] positive) and MDA-MB-231 (ER negative) for breast, LNCaP (androgen receptor [AR] positive) and PC3-M (AR negative) for prostate, and HCT116 (wild type p53, mutated KRAS) and HT29 (p53 mutant) for colon.[65]
(§2) In considering effect on cancer cells, for each compound and each cell line tested we calculated the efficacy ratio, i.e., efficacy ratio = (percent of remaining cancer cell colonies)/(percent of remaining bone marrow colonies), at 8 days after treatment with 40 μM compound (S4 Fig). We considered those with an efficacy ratio below 0.5 as active and at least partially selective. The stringency of this is highlighted by considering the effect of 5FU on colon cancer, where it is frequently used clinically in proven curative settings, as well as proven life prolonging settings.[70, 71] […] Even at 5.7 μM, where 5FU is toxic to bone marrow, with hematopoietic colony formation at 38% of control, the efficacy ratio for HT29 cells has only dropped to 0.52. […] It can be seen that compounds segregate to protein sites. Specifically, of 10 compounds meeting this activity criteria (i.e., efficacy ratio <0.5), 3 were directed at the Dxr2 site, 3 at FolC2, 2 at FolC1, 1 at Dxr1 and 1 at TYLT.
(§3) Eight-day colony formation assays of cancer cells were performed as described by us.[87] Briefly, 0.5–1.0 × 10^3 cells were seeded into a 12 well plate, after 24 hours compound added and eight days later colonies (of 3 or more cells) were scored after trypan blue staining. Conditions were in replicates of N = 2. All compounds were stored under desiccated conditions in a sealed container at minus 20°C upon arrival. One day prior to use, they were placed into DMSO, stored at […] as stock solutions, thawed just prior to use, and not reused.

[1] = test system: HT29, MDA-MB-231 and H226; assay: NCI-60 cell line screen, other cell lines; type: cell-based, human; settings: 10 μM X 48 hours
Protocol: Above findings support the importance of Dxr2 and FolC2 sites, and of Dxr2-017 and FolC2-001 compounds, respectively. The predicted poses of Dxr2-017 bound to the Dxr2 site and FolC2-001 bound to the FolC2 site are shown (Fig 7). The NCI-60 cell line screen evaluates compound growth inhibition and cell toxicity in a highly standardized manner across 60 different cell lines. Dxr2-017 and FolC2-001 were evaluated in this assay (S5 Fig). NCI-60 screens evaluate compounds at 10 μM X 48 hours. […] Of high interest, in the NCI-60 screen Dxr2-017 had relatively high activity against melanoma cell lines, inducing cell death in 5 cell lines ranging from 25–65%, and inhibiting growth in 4 cell lines ranging from 76–96%. Its impact on cell death represents the most striking relative difference in response across cell lines.

[2] = test system: PC3-M prostate cancer cells; assay: Eight-day colony formation assay, PC3-M; type: cell-based, human
Protocol: as §1, §2, §3

[3] = test system: human breast, prostate, colon and lung cancer cells; assay: Eight-day colony formation assays, summary across the cancer cell line panel; type: cell-based
Protocol: as §1, §2, §3

[4] = test system: MCF-7 breast cancer cells; assay: Eight-day colony formation assay, MCF-7; type: cell-based, human
Protocol: as §1, §2, §3

[5] = test system: MDA-MB-231 breast cancer cells; assay: Eight-day colony formation assay, MDA-MB-231; type: cell-based, human; settings: MDAMB231
Protocol: as §1, §2, §3

[6] = test system: LNCaP prostate cancer cells; assay: Eight-day colony formation assay, LNCaP; type: cell-based, human
Protocol: as §1, §2, §3

H226 lung cancer cells = assay: Eight-day colony formation assay, H226; type: cell-based, human
Protocol: as §1, §2, §3

HT116 colon cancer cells = assay: Eight-day colony formation assay, HT116; type: cell-based, human
Protocol: as §1, §2, §3

A549 lung cancer cells = assay: Eight-day colony formation assay, A549; type: cell-based, human
Protocol: as §1, §2, §3

O=C(Cc1n[nH]c(=O)c2ccccc12)Nn1cnc2ccccc21 [TYLT-001]
mean number of colonies, % of control, 14 day (human CD34+ stem cells): 103 % of control
mean number of colonies, % of control, 8 day (human CD34+ stem cells): 117 % of control

O=C(COC(=O)c1cccs1)c1ccc2[nH]c(=O)[nH]c2c1 [TYLT-003]
mean number of colonies, % of control, 14 day (human CD34+ stem cells): 94 % of control
mean number of colonies, % of control, 8 day (human CD34+ stem cells): 97 % of control

O=c1[nH]cc(F)c(=O)[nH]1 [5FU, 5-fluorouracil, reference compound]
effect on bone marrow (human CD34+ stem cells; 0.82 μM): no effect
effect on bone marrow colony formation (human CD34+ stem cells; 5.7 μM): profound suppressive effects
hematopoietic colony formation, % of control (human CD34+ stem cells; 5.7 μM): 38 % of control
effect on bone marrow colony formation (human CD34+ stem cells; 40 μM): completely suppresses colony formation
efficacy ratio (HT29 colon cancer cells; 0.82 μM): 0.82
efficacy ratio (cancer cell colonies to bone marrow colonies at 8 days) (HT29 colon cancer cells; 5.7 μM): 0.52

c1ccc(CCc2n[nH]c(-c3ccccn3)n2)cc1 [FolC1-031]
mean number of colonies, % of control, 14 day (human CD34+ stem cells): 85 % of control
mean number of colonies, % of control, 8 day (human CD34+ stem cells): 80 % of control

Cc1nnsc1C(=O)OCCCn1c(=O)[nH]c2ccccc21 [Dxr2-001]
mean number of colonies, % of control, 14 day (human CD34+ stem cells): 93 % of control
mean number of colonies, % of control, 8 day (human CD34+ stem cells): 109 % of control

O=C(Cn1c(=O)oc2ccccc21)N1CCn2c1nc1ccccc12 [FolC2-001]
activity in NCI-60 screen [1]: against H226
mean number of colonies, % of control, 14 day (human CD34+ stem cells): 87 % of control
mean number of colonies, % of control, 8 day (human CD34+ stem cells): 108 % of control
efficacy ratio (cancer cell colonies to bone marrow colonies at 8 days) ([2]; 5.7 μM): 0.96
efficacy ratio (cancer cell colonies to bone marrow colonies at 8 days) ([2]; 40 μM): 0.41
number of cell lines exhibiting an efficacy ratio below 0.5 ([3]; 40 μM): 5 cell lines
relative activity for a given compound, % (% of cells tested where ratio is <0.5) ([3]; 40 μM): 63%
fold higher mean efficacy ratio than that of Dxr2-017 ([3]; 40 μM, cells with ratio below 0.5, P = 0.001): 9.7 fold
mean efficacy ratio for cells/compounds where the efficacy ratio is below 0.5 ([3]; 40 μM, mean ± SEM): 0.29 ± 0.09
efficacy at concentrations below 40 μM [3]: some degree of efficacy observed
efficacy ratio (cancer cell colonies to bone marrow colonies at 8 days) ([4]; 5.7 μM): 0.65
efficacy ratio (cancer cell colonies to bone marrow colonies at 8 days) ([4]; 40 μM): 0.43
efficacy ratio (cancer cell colonies to bone marrow colonies at 8 days) ([5]; 5.7 μM): 0.81
efficacy ratio (cancer cell colonies to bone marrow colonies at 8 days) ([5]; 40 μM): 0.28
efficacy ratio (cancer cell colonies to bone marrow colonies at 8 days) ([6]; 5.7 μM): 0.82
efficacy ratio (cancer cell colonies to bone marrow colonies at 8 days) ([6]; 40 μM): 0.34
efficacy ratio (cancer cell colonies to bone marrow colonies at 8 days) (H226 lung cancer cells; 5.7 μM): 0.56
efficacy ratio (cancer cell colonies to bone marrow colonies at 8 days) (H226 lung cancer cells; 40 μM): 0.00
efficacy ratio (cancer cell colonies to bone marrow colonies at 8 days) (HT116 colon cancer cells; 5.7 μM): 0.85
efficacy ratio (cancer cell colonies to bone marrow colonies at 8 days) (HT116 colon cancer cells; 40 μM): 0.60
efficacy ratio (cancer cell colonies to bone marrow colonies at 8 days) (HT29 colon cancer cells; 5.7 μM): 1.13
efficacy ratio (cancer cell colonies to bone marrow colonies at 8 days) (HT29 colon cancer cells; 40 μM): 0.79
efficacy ratio (cancer cell colonies to bone marrow colonies at 8 days) (A549 lung cancer cells; 5.7 μM): 0.99
efficacy ratio (cancer cell colonies to bone marrow colonies at 8 days) (A549 lung cancer cells; 40 μM): 0.53

O=C(CCc1c[nH]c2ccccc12)N1CCSc2ccccc21 [FolC2-005]
mean number of colonies, % of control, 14 day (human CD34+ stem cells): 101 % of control
mean number of colonies, % of control, 8 day (human CD34+ stem cells): 105 % of control
efficacy ratio (cancer cell colonies to bone marrow colonies at 8 days) ([2]; 40 μM): 0.00
relative activity for a given compound, % (% of cells tested where ratio is <0.5) ([3]; 40 μM): 63%
efficacy at concentrations below 40 μM [3]: A similar phenomenon is observed
efficacy ratio (cancer cell colonies to bone marrow colonies at 8 days) ([4]; 40 μM): 0.33
efficacy ratio (cancer cell colonies to bone marrow colonies at 8 days) ([5]; 40 μM): 0.78
efficacy ratio (cancer cell colonies to bone marrow colonies at 8 days) ([6]; 40 μM): 0.28
efficacy ratio (cancer cell colonies to bone marrow colonies at 8 days) (H226 lung cancer cells; 40 μM): 0.11
efficacy ratio (cancer cell colonies to bone marrow colonies at 8 days) (HT116 colon cancer cells; 40 μM): 0.70
efficacy ratio (cancer cell colonies to bone marrow colonies at 8 days) (HT29 colon cancer cells; 40 μM): 0.06
efficacy ratio (cancer cell colonies to bone marrow colonies at 8 days) (A549 lung cancer cells; 40 μM): 0.69

O=C(Nc1nnn[nH]1)c1cc(-c2ccccc2)nc2ccccc12 [PRT-051]
mean number of colonies, % of control, 14 day (human CD34+ stem cells): 119 % of control
mean number of colonies, % of control, 8 day (human CD34+ stem cells): 93 % of control
